Key:
Type in all cases: biochemical
human vanin-1 [1] = molecular target: T1, human vanin-1 (Homo sapiens (Human), UniProt O95497); test: Human Vanin-1 Enzyme Assay 1; settings: 25 pM human vanin-1, 50 uM pantetheine 7-amino-4-trifluoromethylcoumarin, 30 min preincubation, 60 min
Method in brief: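 Purified His6/FLAG-tagged extracellular domain of human vanin-1, secreted from CHO cells, at 25 pM final in 50 mM Tris-HCl pH 8.0, 50 mM KCl, 0.005% Brij-35, 1.6 mM cysteamine, 0.5% DMSO. Inhibitor preincubated 30 min at room temperature; 50 uM pantetheine-AFC substrate, 60 min, fluorescence at 405/510 nm; 11-point four-fold dilution series.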

human vanin-1 [2] = molecular target: T1, human vanin-1; test: Human Vanin-1 Enzyme Assay 3; settings: 2 nM human vanin-1, 10 uM substrate, 15 min
Method in brief: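 His/FLAG-tagged extracellular domain of human vanin-1 from CHO cells, used at 2 nM final, with 10 uM pantetheine-AFC substrate. Buffer: 50 mM Tris-HCl pH 8.0, 50 mM KCl, 0.005% Brij-35, 1.5 mM cysteamine, 1% DMSO. 15 min at room temperature; fluorescence read at 405/505 nm across an 11-point 2-fold dilution series.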

human vanin-1 [3] = molecular target: T1, human vanin-1; test: Human Vanin-1 Enzyme Assay 2; settings: 1 nM human vanin-1, 10 uM substrate, 45 min
Method in brief: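 Purified CHO-expressed His/FLAG-tagged human vanin-1 extracellular domain (1 nM) cleaved pantetheine-AMC-CF3 substrate (10 uM) in pH 8.0 Tris buffer with 1.5 mM cysteamine and 1% DMSO. Fluorescence (ex 405/em 505 nm) was read after 45 min, over an 11-point half-log inhibitor series.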

T1 sequence (O95497 22-491): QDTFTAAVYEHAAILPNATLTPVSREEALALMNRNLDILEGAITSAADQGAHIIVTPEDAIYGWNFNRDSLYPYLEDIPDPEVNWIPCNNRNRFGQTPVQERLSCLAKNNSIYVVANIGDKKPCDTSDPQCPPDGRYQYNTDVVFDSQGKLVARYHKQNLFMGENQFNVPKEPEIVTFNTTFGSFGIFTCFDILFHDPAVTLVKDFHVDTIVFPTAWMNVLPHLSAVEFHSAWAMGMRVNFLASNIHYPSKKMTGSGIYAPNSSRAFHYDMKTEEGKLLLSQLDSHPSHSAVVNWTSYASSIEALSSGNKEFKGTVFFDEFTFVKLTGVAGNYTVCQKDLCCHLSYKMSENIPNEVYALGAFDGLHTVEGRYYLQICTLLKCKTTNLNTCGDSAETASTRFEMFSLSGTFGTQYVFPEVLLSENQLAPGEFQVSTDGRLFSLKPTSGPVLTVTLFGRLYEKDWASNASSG

Row | SMILES | IC50 (human vanin-1 [1]) [nM] | IC50 (human vanin-1 [2]) [nM] | IC50 (human vanin-1 [3]) [nM]
1 | O=C(c1cccc(C(F)(F)F)c1)c1ccc(NCc2cccnc2)nn1 [Example 91, {6-[(pyridin-3-ylmethyl)amino]pyridazin-3-yl}[3-(trifluoromethyl)phenyl]methanone] | 789 | 91.3 | 783
2 | NC(=O)c1ccc(CNc2ncc(C(=O)c3cc(F)cc(C(F)(F)F)c3)cn2)cc1 [Example 95, 4-[({5-[3-fluoro-5-(trifluoromethyl)benzoyl]pyrimidin-2-yl}amino)methyl] benzamide] | 91.9 | 166 | 242
3 | O=C(c1cnc(NCc2cccnc2)nc1)c1ccc2c(c1)OCCO2 [Example 98, 2,3-dihydro-1,4-benzodioxin-6-yl{2-[(pyridin-3-ylmethyl)amino]pyrimidin-5-yl}methanone] | 102 | 55.5 | 149
4 | O=C(c1cnc(NCc2cccnc2)nc1)c1cccs1 [Example 100, {2-[(pyridin-3-ylmethyl)amino]pyrimidin-5-yl}(thiophen-2-yl)methanone] | 162 | 145 | 122
5 | N#Cc1cccc(C(=O)c2cnc(NCc3ccc(C(N)=O)nc3)nc2)c1 [Example 105, 5-({[5-(3-cyanobenzoyl)pyrimidin-2-yl]amino}methyl) pyridine-2-carboxamide] | 146 | 173 | 195
6 | O=C(c1ccccc1)c1cnc(NCc2cncnc2)nc1 [Example 109, phenyl{2-[(pyrimidin-5-ylmethyl)amino]pyrimidin-5-yl}methanone] | 143 | 95.3 | 145
7 | N#Cc1cccc(C(=O)c2cnc(NCc3ccnnc3)nc2)c1 [Example 112, 3-({2-[(pyridazin-4-ylmethyl)amino]pyrimidin-5-yl}carbonyl) benzonitrile] | 5570 | 1870 | 856

Second part, the compound after the results:

Row | IC50 (human vanin-1 [1]) [nM] | IC50 (human vanin-1 [2]) [nM] | IC50 (human vanin-1 [3]) [nM] | SMILES
8 | 858 | 722 | 549 | O=C(c1cnc(NCc2cccnc2)nc1)c1ccccc1Cl [Example 102, (2-chlorophenyl){2-[(pyridin-3-ylmethyl)amino]pyrimidin-5-yl}methanone]
9 | 196 | 200 | 116 | Cc1ccc2cc(C(=O)c3cnc(NCc4cccnc4)nc3)ccc2n1 [Example 104, (2-methylquinolin-6-yl){2-[(pyridin-3-ylmethyl)amino]pyrimidin-5-yl}methanone]
10 | 387 | 423 | 990 | NC(=O)c1ccc(CNc2ncc(C(=O)c3ccccc3)cn2)cc1 [Example 106, 4-{[(5-benzoylpyrimidin-2-yl)amino]methyl} benzamide]
11 | 111 | 96.7 | 110 | N#Cc1cccc(C(=O)c2cnc(NCc3cccnn3)nc2)c1 [Example 108, 3-({2-[(pyridazin-3-ylmethyl)amino]pyrimidin-5-yl}carbonyl) benzonitrile]
12 | 422 | 63.5 | 238 | CC(C)(Nc1ncc(C(=O)c2ccccc2)cn1)c1ccccc1 [Example 110, phenyl{2-[(2-phenylpropan-2-yl)amino]pyrimidin-5-yl}methanone]
13 | 367 | 182 | 202 | O=C(c1ccccc1)c1cnc(NC2(c3ccccc3)CC2)nc1 [Example 111, phenyl{2-[(1-phenylcyclopropyl)amino]pyrimidin-5-yl}methanone]
14 | 872 | 259 | 334 | N#Cc1cccc(CNc2ncc(C(=O)c3ccccc3)cn2)c1 [Example 113, 3-{[(5-benzoylpyrimidin-2-yl)amino]methyl} benzonitrile]
15 | 380 | 170 | 254 | O=C(c1ccccc1)c1cnc(NC2(c3cccnc3)CC2)nc1 [Example 114, phenyl(2-{[1-(pyridin-3-yl)cyclopropyl]amino}pyrimidin-5-yl)methanone]

Reference: patent publication US10308615B2, “Heterocyclic compounds as inhibitors of Vanin-1 enzyme” (Pfizer Inc., priority 2015, dated 2019)
